# In patent EP0360258B1, “Amino acid quinoline and naphthyridine derivatives” (ABBOTT LABORATORIES, priority 1988, dated 1990):
# Where a name gives a salt, the structure may show the parent alone. Read-outs that look alike come from different tables or passages of the source.
# Assays:
# [1] = physchem
# [2] = tested on: Stap. Aureus CMX 553; assay: Second in vitro antibacterial test, MIC (BHIB); assay type: cell-based; details: Brain Heart Infusion Broth (BHIB)
# [3] = tested on: Strep. pyogenes EES 61; assay: Second in vitro antibacterial test, MIC (BHIB); assay type: cell-based
# [4] = tested on: E.Coli Juhl; assay: Second in vitro antibacterial test, MIC (BHIB); assay type: cell-based; details: Brain Heart Infusion Broth (BHIB)
# [5] = tested on: Ps.Aeruginosa A5007; assay: Second in vitro antibacterial test, MIC (BHIB); assay type: cell-based; details: Brain Heart Infusion Broth (BHIB)
# [6] = Staphylococcus aureus, read-out: MIC
# [7] = Streptococcus pyogenes, EES61, Brain Heart Infusion Broth (BHIB), read-out: MIC
# [8] = Escherichia coli, read-out: MIC
# [9] = Pseudomonas aeruginosa, read-out: MIC
# [10] = Brain Heart Infusion Broth (BHIB)
structure (smiles),measurement,setting,value
"NC1CCN(c2nc3c(cc2F)c(=O)c(C(=O)O)cn3-c2ccc(F)cc2)C1 (stereo not drawn) [A, 7-(3-amino-1-pyrrolidinyl)-6-fluoro-1-(4-fluorophenyl)-1,4-dihydro-4-oxo-1,8-naphthyridine-3-carboxylic acid, reference compound]",solubility,[1]; pH 7.4,14 µg/mL
same,solubility,[1]; water,1400 µg/mL
"CCC[C@H](NC(=O)[C@@H](N)CCC)C(=O)NC1CCN(c2nc3c(cc2F)c(=O)c(C(=O)O)cn3-c2ccc(F)cc2F)C1 (stereo partly drawn) [Example 3b, 7-(3-L-Norvaline-L-Norvalineamino-1-pyrrolidinyl)-1-(2,4-difluorophenyl)-6-fluoro-1,4-dihydro-4-oxo-1,8-naphthyridine-3-carboxylic acid hydrochloride]",MIC,[2]; [6],12.5 µg/mL
same,MIC,[3]; [7],12.5 µg/mL
same,MIC,[4]; [8],25 µg/mL
same,MIC,[5]; [9],50 µg/mL
same,solubility,[1]; pH 7.4,680 µg/mL
same,solubility,[1]; water,> 40000 µg/mL
NCC(=O)NC1CCN(c2nc3c(cc2F)c(=O)c(C(=O)O)cn3-c2ccc(F)cc2F)C1 (stereo not drawn) [Example 7],MIC,[2]; [6],1.56 µg/mL
same,MIC,[3]; [7],0.78 µg/mL
same,MIC,[4]; [8],0.78 µg/mL
same,MIC,[5]; [9],12.5 µg/mL
CC(N)C(=O)NC(Cc1ccccc1)C(=O)NC1CCN(c2nc3c(cc2F)c(=O)c(C(=O)O)cn3-c2ccc(F)cc2F)C1 (stereo not drawn) [Example 11],MIC,[2]; [6],16 µg/mL
same,MIC,[4]; [8],16 µg/mL
same,MIC,[5]; [9],128 µg/mL
same,solubility,[1]; pH 7.4,590 µg/mL
same,solubility,[1]; water,> 20000 µg/mL
NC(Cc1ccc(O)cc1)C(=O)NC1CCN(c2nc3c(cc2F)c(=O)c(C(=O)O)cn3-c2ccc(F)cc2F)C1 (stereo not drawn) [Example 13],MIC,[2]; [6],12.5 µg/mL
same,MIC,[3]; [7],12.5 µg/mL
same,MIC,[4]; [8],12.5 µg/mL
same,MIC,[5]; [9],50 µg/mL
same,solubility,[1]; pH 7.4,60 µg/mL
same,solubility,[1]; water,> 90000 µg/mL
CC(N)C(=O)NC1CCN(c2nc3c(cc2F)c(=O)c(C(=O)O)cn3-c2ccc(F)cc2F)C1 (stereo not drawn) [Example 17],MIC,[2]; [6],2 µg/mL
same,MIC,[4]; [8],0.5 µg/mL
same,MIC,[5]; [9],16 µg/mL
same,solubility,[1]; pH 7.4,120 µg/mL
same,solubility,[1]; water,> 20000 µg/mL
CC(C)C(N)C(=O)NC1CCN(c2nc3c(cc2F)c(=O)c(C(=O)O)cn3-c2ccc(F)cc2F)C1 (stereo not drawn) [Example 19],solubility,[1]; pH 7.4,410 µg/mL
same,solubility,[1]; water,> 10000 µg/mL
CC(C)CC(N)C(=O)NC1CCN(c2nc3c(cc2F)c(=O)c(C(=O)O)cn3-c2ccc(F)cc2F)C1 (stereo not drawn) [Example 21],MIC,[2]; [6],1.56 µg/mL
same,MIC,[3]; [7],6.2 µg/mL
same,MIC,[4]; [8],1.56 µg/mL
same,MIC,[5]; [9],25 µg/mL
same,solubility,[1]; pH 7.4,140 µg/mL
same,solubility,[1]; water,> 35000 µg/mL
CSCCC(N)C(=O)NC1CCN(c2nc3c(cc2F)c(=O)c(C(=O)O)cn3-c2ccc(F)cc2F)C1 (stereo not drawn) [Example 23],MIC,[2]; [6],3.12 µg/mL
same,MIC,[3]; [7],3.12 µg/mL
same,MIC,[4]; [8],3.12 µg/mL
same,MIC,[5]; [9],5 µg/mL
CCCC(N)C(=O)NC1CCN(c2cc3c(cc2F)c(=O)c(C(=O)O)cn3-c2ccc(F)cc2F)C1 (stereo not drawn) [Example 26b],MIC,[2],0.39 µg/mL
same,MIC,[3]; [10],1.56 µg/mL
same,MIC,[4],0.78 µg/mL
same,MIC,[5],6.2 µg/mL
CCC[C@H](N)C(=O)NC1CCN(c2nc3c(cc2F)c(=O)c(C(=O)O)cn3CC)C1 (stereo partly drawn) [Example 26ff],MIC,[2],1.56 µg/mL
same,MIC,[3]; [10],6.2 µg/mL
same,MIC,[4],1.56 µg/mL
same,MIC,[5],12.5 µg/mL
CCCC(N)C(=O)NC1CCN(c2cc3c(cc2F)c(=O)c(C(=O)O)cn3-c2ccc(F)cc2)C1 (stereo not drawn) [Example 26h],MIC,[2],0.78 µg/mL
same,MIC,[3]; [10],1.56 µg/mL
same,MIC,[4],0.78 µg/mL
same,MIC,[5],6.2 µg/mL
"Cl.NCC(=O)N[C@@H](Cc1ccccc1)C(=O)NC1CCN(c2cc3c(cc2F)c(=O)c(C(=O)O)cn3-c2ccc(F)cc2F)C1 (stereo partly drawn) [Example 26jj, 1-(2,4-Difluorophenyl)-6-Fluoro-7-(3-Gly-L-Phe -Amino-1-Pyrrolidinyl)-1,4-Dihydro-4-Oxo-Quinoline-3-Carboxylic Acid Hydrochloride]",MIC,[2],16 µg/mL
same,MIC,[3]; [10],32 µg/mL
same,MIC,[4],16 µg/mL
same,MIC,[5],64 µg/mL
CC(C)CC(N)C(=O)NC1CCN(c2nc3c(cc2F)c(=O)c(C(=O)O)cn3C2CC2)C1 (stereo not drawn) [Example 26o],MIC,[2],0.39 µg/mL
same,MIC,[3]; [10],3.1 µg/mL
same,MIC,[4],0.2 µg/mL
same,MIC,[5],1.56 µg/mL
CCCC(N)C(=O)NC1CCN(c2nc3c(cc2F)c(=O)c(C(=O)O)cn3C2CC2)C1 (stereo not drawn) [Example 26p],MIC,[2],0.39 µg/mL
same,MIC,[3]; [10],3.1 µg/mL
same,MIC,[5],1.56 µg/mL
O=C(O)c1cn(-c2ccc(F)cc2F)c2nc(N3CCC(NC(=O)C4CCCN4)C3)c(F)cc2c1=O (stereo not drawn) [Example 28],MIC,[2]; [6],1.56 µg/mL
same,MIC,[3]; [7],1.56 µg/mL
same,MIC,[4]; [8],1.56 µg/mL
same,MIC,[5]; [9],12.5 µg/mL
CCC[C@H](NC(=O)CNC(=O)CN)C(=O)NC1CCN(c2nc3c(cc2F)c(=O)c(C(=O)O)cn3-c2ccc(F)cc2F)C1 (stereo partly drawn) [Example 30],MIC,[2]; [6],25 µg/mL
same,MIC,[3]; [7],100 µg/mL
same,MIC,[4]; [8],25 µg/mL
same,MIC,[5]; [9],> 100 µg/mL
"NC(=O)C[C@H](N)C(=O)NC1CCN(c2nc3c(cc2F)c(=O)c(C(=O)O)cn3-c2ccc(F)cc2F)C1 (stereo partly drawn) [Example 41, 7-(3-L-Asparagine-amino-1-pyrrolidinyl)-1-(2,4-difluorophenyl)-6-fluoro-1,4-dihydro-4-oxo-1,8-naphthyridine-3-carboxylic acid hydrochloride]",solubility,[1]; pH 7.4,400 µg/mL
same,solubility,[1]; water,> 35000 µg/mL
"N[C@@H](CC(=O)O)C(=O)NC1CCN(c2nc3c(cc2F)c(=O)c(C(=O)O)cn3-c2ccc(F)cc2F)C1 (stereo partly drawn) [Example 45, 7-(3-L-Asp-amino-1-pyrrolidinyl)-1-(2,4-difluorophenyl)-6-fluoro-1,4-dihydro-4-oxo-1,8-naphthyridine-3-carboxylic acid hydrochloride]",solubility,[1]; pH 7.4,2400 µg/mL
same,solubility,[1]; water,4100 µg/mL
"Cl.Cl.NCCCC[C@H](N)C(=O)NC1CCN(c2nc3c(cc2F)c(=O)c(C(=O)O)cn3-c2ccc(F)cc2F)C1 (stereo partly drawn) [Example 46, 7-(3-Lys-amino-1-pyrrolidinyl)-1-(2,4-difluorophenyl)-6-fluoro-1,4-dihydro-4-oxo-1,8-naphthyridine-3-carboxylic acid dihydrochloride]",MIC,[2],100 µg/mL
same,MIC,[3]; [10],100 µg/mL
same,MIC,[4],3.12 µg/mL
same,MIC,[5],>100 µg/mL
CCC[C@H](NC(=O)CN)C(=O)NC1CCN(c2nc3c(cc2F)c(=O)c(C(=O)O)cn3-c2ccc(F)cc2F)C1 (stereo partly drawn) [Example 52],solubility,[1]; pH 7.4,80 µg/mL
same,solubility,[1]; water,6890 µg/mL
"CCC[C@H](NC(=O)[C@H](C)N)C(=O)NC1CCN(c2nc3c(cc2F)c(=O)c(C(=O)O)cn3-c2ccc(F)cc2F)C1 (stereo partly drawn) [Example 55b, 7-(3-Ala-Nval-amino-1-pyrrolidinyl)-6-fluoro-1-(2,4-difluorophenyl)-1,4-dihydro-4-oxo-1,8-naphthyridine-3-carboxylic acid]",solubility,[1]; pH 7.4,1030 µg/mL
same,solubility,[1]; water,26000 µg/mL
"CSCC[C@H](NC(=O)[C@H](C)N)C(=O)NC1CCN(c2nc3c(cc2F)c(=O)c(C(=O)O)cn3-c2ccc(F)cc2F)C1 (stereo partly drawn) [Example 55n, 7-(3-Ala-Met-amino-1-pyrrolidinyl)-6-fluoro-1-(2,4-difluorophenyl)-1,4-dihydro-4-oxo-1,8-naphthyridine-3-carboxylic acid]",solubility,[1]; pH 7.4,2500 µg/mL
same,solubility,[1]; water,20000 µg/mL
"CSCC[C@H](NC(=O)[C@@H](N)CCSC)C(=O)NC1CCN(c2nc3c(cc2F)c(=O)c(C(=O)O)cn3-c2ccc(F)cc2F)C1 (stereo partly drawn) [Example 55o, 7-(3-Met-Met-amino-1-pyrrolidinyl)-6-fluoro-1-(2,4-difluorophenyl)-1,4-dihydro-4-oxo-1,8-naphthyridine-3-carboxylic acid]",solubility,[1]; pH 7.4,310 µg/mL
same,solubility,[1]; water,22000 µg/mL
"CSCC[C@H](NC(=O)[C@@H](N)CC(C)C)C(=O)NC1CCN(c2nc3c(cc2F)c(=O)c(C(=O)O)cn3-c2ccc(F)cc2F)C1 (stereo partly drawn) [Example 55p, 7-(3-Leu-Met-amino-1-pyrrolidinyl)-6-fluoro-1-(2,4-difluorophenyl)-1,4-dihydro-4-oxo-1,8-naphthyridine-3-carboxylic acid]",solubility,[1]; pH 7.4,60 µg/mL
same,solubility,[1]; water,23000 µg/mL
"CC(C)C[C@H](NC(=O)[C@@H](N)CC(C)C)C(=O)NC1CCN(c2nc3c(cc2F)c(=O)c(C(=O)O)cn3-c2ccc(F)cc2F)C1 (stereo partly drawn) [Example 55q, 7-(3-Leu-Leu-amino-1-pyrrolidinyl)-6-fluoro-1-(2,4-difluorophenyl)-1,4-dihydro-4-oxo-1,8-naphthyridine-3-carboxylic acid]",solubility,[1]; pH 7.4,190 µg/mL
same,solubility,[1]; water,19000 µg/mL
"CC(C)C[C@H](NC(=O)[C@H](C)N)C(=O)NC1CCN(c2nc3c(cc2F)c(=O)c(C(=O)O)cn3-c2ccc(F)cc2F)C1 (stereo partly drawn) [Example 55r, 7-(3-Ala-Leu-amino-1-pyrrolidinyl)-6-fluoro-1-(2,4-difluorophenyl)-1,4-dihydro-4-oxo-1,8-naphthyridine-3-carboxylic acid]",solubility,[1]; pH 7.4,2000 µg/mL
same,solubility,[1]; water,26000 µg/mL
